Ki data for eleven molecules are collected here from ChEMBL document CHEMBL2346498, “Expression, characterization and inhibition of Toxoplasma gondii 1-deoxy-D-xylulose-5-phosphate reductoisomerase” (Bioorg Med Chem Lett, 2013).

The assay is described as follows: Inhibition of recombinant Toxoplasma gondii DXR catalytic domain (68 to 513) expressed in Escherichia coli BL21 using DXP as substrate after 10 mins by Uv-spectrophotometric analysis. It is filed as cell-free.
One may read the Ki as the dissociation constant of the complex between target and ligand, obtained from inhibition or displacement. On to `O=P(O)(O)Cc1ccc(-c2ccccc2)cn1`, for which the Ki amounted to 2100 nM.

As to `O=CN(O)CCC(c1ccc(Cl)c(Cl)c1)P(=O)(O)O` (stereo unspecified), the Ki amounted to 77 nM.

With `CC(=O)N(O)CCC(c1ccc(Cl)c(Cl)c1)P(=O)(O)O` (stereo unspecified), the Ki was determined as 220 nM.

Turning to `O=CN(O)CCC(c1cccnc1)P(=O)(O)O` (stereo unspecified), the Ki was found to be 55 nM.

Consider `O=CN(O)CCC(c1ccncc1)P(=O)(O)O` (stereo unspecified), for which the Ki was found to be 79 nM.

Regarding `CC(=O)N(O)CCC(c1cccnc1)P(=O)(O)O` (stereo unspecified), the Ki was 970 nM.

For the molecule `CC(=O)N(O)CCC(c1ccncc1)P(=O)(O)O` (stereo unspecified), the Ki was found to be 530 nM.

In the case of `O=c1ccc(-c2ccccc2)cn1O` [1-HYDROXY-5-PHENYLPYRIDIN-2(1H)-ONE], the Ki came out at 25600 nM.

Turning to `O=CN(O)CCCP(=O)(O)O` [FOSMIDOMYCIN], the Ki turned out to be 90 nM.

For the molecule `CC(=O)N(O)CCCP(=O)(O)O` [FR-900098], the Ki turned out to be 48 nM.

As to `O=P(O)(O)Cc1ccccn1` [PYRIDIN-2-YLMETHYLPHOSPHONIC ACID], the Ki was 4100 nM.
